Measurements: article PMC5444442, “Flagellin peptide flg22 gains access to long-distance trafficking in Arabidopsis via its receptor, FLS2” (Journal of Experimental Botany, 2017)
Peptide text beside a SMILES is read from it.

What was measured:
FLS2 = target: T1, FLS2 (Arabidopsis thaliana, UniProt Q9FL28); test: ROS assay in leaf discs; assay type: cell-based; settings: flg22-induced ROS; Supplementary Fig. S1B
T1 construct: treating Col and fls2 leaf discs (prefloated on water overnight) with 1 μM peptide and measuring ROS induction; from tissue; host or cells: Arabidopsis thaliana Col leaf discs (fls2 mutant as negative control)
Procedure: Bioactivity was verified for each batch of peptides by treating Col and fls2 leaf discs (prefloated on water overnight) with 1 μM peptide and measuring ROS induction as described in ([Tateda et al., 2014]).

Arabidopsis plants = test: Long-distance transport after surface application of fluorescent peptide; assay type: in vivo, Arabidopsis thaliana; settings: 1 d
Procedure: We applied 10–20 μl of 5 μM TAMRA–flg22 (without or with inhibitors: 50 μM MG132 or 50 mM BDM) to a filter paper disc placed on the adaxial side of one leaf of in vitro-grown Arabidopsis plants and distal tissues were imaged by confocal microscopy after 1 d. For experiments with mixed peptides, 5 μM TAMRA–flg22 + 10 μM FAM–scrambled peptides were used.
[^14C]sucrose radioactivity was quantified in a scintillation counter.

Arabidopsis leaf discs = test: Subcellular localization, uptake and accumulation of flg22 in leaf discs; assay type: cell-based, Arabidopsis thaliana; settings: Col leaf discs
Procedure: Leaf discs were floated (abaxial side down) on 1–5 μM TAMRA–flg22 or 5–10 μM FAM–flg22 solution (in water) at room temperature for the indicated time (lower concentrations were used for overnight treatments). Inhibitors that affect endocytosis, MG132 (Sigma-Aldrich, 50 μM) or 2,3-butanedione monoxime (BDM; Sigma-Aldrich, 50 mM) were added at the same time as the peptides. FM4-64 (Invitrogen, 6–8 μM) or 2′,7′-bis-(2-carboxyethyl)-5-(and-6)-carboxyfluorescein (BCECF)-AM (cleaved by an endogenous plant esterase to BCECF, Invitrogen, 20–40 μM) mixed with peptide solution was vacuum infiltrated for 2 min into leaf discs ([Kang et al., 2014]) prior to incubation (floating on peptide/dye solution) for the indicated time. In some experiments FAM–Y-flg22 was used with results similar to FAM–flg22.
For experiments with mixed peptides, leaf discs were floated for the indicated time on 2 μM FAM–flg22, FAM–scrambled peptide or fluorescein mixed with 1 μM TAMRA–flg22. In all experiments, leaf discs were washed after treatment by gently shaking for several minutes in water and the abaxial side was imaged by confocal or epifluorescence microscopy (see ‘Microscopy’). Fluorescence intensity profiles were generated with ImageJ, as in [Spallek et al., (2013)] and [Bozkurt et al. (2015)] (see ‘Data analysis’).
Confocal images were obtained using a Zeiss LSM710 laser-scanning confocal microscope (Zeiss, Germany) as described in [Kang et al. (2014)]. Fluorescence was visualized as follows: GFP/FAM/fluorescein/BCECF excitation (ex) 488 nm/emission (em) 495–545 nm; TAMRA ex 561 nm/em 566–620 nm; FM4-64: ex 561 nm/em 686–758 nm. Green and red fluorescence was acquired for the same field using a sequential acquisition mode.
Fluorescence intensity profiles were generated with ImageJ (http://rsb.info.nih.gov/ij, last accessed 6 April 2017) using RGB Profiler and Color Profiler. Fluorescent puncta were manually counted in 20 μm × 20 μm confocal image areas as in [Irani et al. (2012)] and [Chaparro-Garcia et al., (2015)] and shown as a fraction ([Irani et al., 2012]; [Choi et al., 2013]). […]

Arabidopsis FLS2 = settings: ref Bauer et al., 2001; cited from earlier work
Description: The fate of flg22 inside plant cells is similar to that of Potato mop-top and Cauliflower mosaic virus movement proteins, which are endocytosed and delivered to pre-vacuoles/late endosomal structures ([Haupt et al., 2005]; [Carluccio et al., 2014]). Endosomal trafficking of the movement proteins is essential for the spread of viruses to distal tissues, as is endocytosis of flg22 for efficient peptide movement to systemic tissue, although ...

T1 sequence (Q9FL28 24-1173): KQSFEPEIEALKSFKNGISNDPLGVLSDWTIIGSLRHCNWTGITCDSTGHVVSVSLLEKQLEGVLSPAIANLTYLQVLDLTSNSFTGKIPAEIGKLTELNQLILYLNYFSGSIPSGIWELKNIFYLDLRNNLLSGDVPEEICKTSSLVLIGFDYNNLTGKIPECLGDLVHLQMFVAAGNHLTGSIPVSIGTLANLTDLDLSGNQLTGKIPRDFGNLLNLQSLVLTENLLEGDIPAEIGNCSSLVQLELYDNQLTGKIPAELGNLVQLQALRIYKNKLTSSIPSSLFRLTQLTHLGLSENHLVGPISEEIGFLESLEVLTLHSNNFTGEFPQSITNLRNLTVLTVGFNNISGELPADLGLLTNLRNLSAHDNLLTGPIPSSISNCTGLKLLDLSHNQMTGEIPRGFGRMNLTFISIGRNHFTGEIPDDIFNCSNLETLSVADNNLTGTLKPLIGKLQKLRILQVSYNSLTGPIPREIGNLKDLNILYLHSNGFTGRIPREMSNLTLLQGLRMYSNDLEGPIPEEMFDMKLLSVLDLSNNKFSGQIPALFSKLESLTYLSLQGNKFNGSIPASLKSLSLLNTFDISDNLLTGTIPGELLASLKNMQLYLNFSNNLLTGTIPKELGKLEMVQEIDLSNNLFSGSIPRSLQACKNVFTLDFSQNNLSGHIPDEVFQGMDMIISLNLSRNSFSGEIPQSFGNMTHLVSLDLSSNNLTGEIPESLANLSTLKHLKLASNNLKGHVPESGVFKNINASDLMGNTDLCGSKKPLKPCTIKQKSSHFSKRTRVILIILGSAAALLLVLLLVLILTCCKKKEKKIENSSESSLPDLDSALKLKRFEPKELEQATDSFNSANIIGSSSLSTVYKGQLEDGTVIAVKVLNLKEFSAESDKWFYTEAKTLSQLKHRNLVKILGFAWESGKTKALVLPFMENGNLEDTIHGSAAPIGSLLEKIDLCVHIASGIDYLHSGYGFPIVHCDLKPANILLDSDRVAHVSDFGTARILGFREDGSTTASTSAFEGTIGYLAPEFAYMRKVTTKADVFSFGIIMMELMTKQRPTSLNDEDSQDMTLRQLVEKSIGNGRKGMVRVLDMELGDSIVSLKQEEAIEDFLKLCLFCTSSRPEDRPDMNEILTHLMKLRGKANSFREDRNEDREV
T1 sequence (Q94F62 26-615 partner): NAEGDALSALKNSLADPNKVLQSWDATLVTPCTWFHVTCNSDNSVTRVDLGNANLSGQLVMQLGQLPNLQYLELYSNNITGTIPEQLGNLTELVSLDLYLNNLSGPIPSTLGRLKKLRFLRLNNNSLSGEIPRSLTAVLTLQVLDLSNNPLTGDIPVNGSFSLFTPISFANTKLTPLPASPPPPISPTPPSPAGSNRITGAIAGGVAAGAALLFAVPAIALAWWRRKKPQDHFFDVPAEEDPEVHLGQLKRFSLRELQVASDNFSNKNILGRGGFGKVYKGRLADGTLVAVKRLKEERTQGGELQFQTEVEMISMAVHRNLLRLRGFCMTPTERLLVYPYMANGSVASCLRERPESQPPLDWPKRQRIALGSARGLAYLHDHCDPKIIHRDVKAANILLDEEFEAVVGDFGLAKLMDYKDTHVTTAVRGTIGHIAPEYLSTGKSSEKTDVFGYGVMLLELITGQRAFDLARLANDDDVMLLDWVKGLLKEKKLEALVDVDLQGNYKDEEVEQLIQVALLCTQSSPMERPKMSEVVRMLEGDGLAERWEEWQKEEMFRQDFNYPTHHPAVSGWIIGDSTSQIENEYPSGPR

Structure (SMILES)	effect of endocytosis inhibitor on defense activation measured by ROS production (FLS2)	effect of inhibitor on long-distance movement of TAMRA–flg22 (Arabidopsis plants; Col, 5 μM TAMRA–flg22 with 50 μM MG132 or 50 mM BDM on filter paper disc)	effect of inhibitor on initial binding/uptake of TAMRA–flg22 (Arabidopsis leaf discs; 5 μM TAMRA–flg22 with 50 μM MG132 or 50 mM BDM added simultaneously, 1–2 h)	effect of inhibitor on overnight accumulation of TAMRA–flg22 in vacuoles (Arabidopsis leaf discs; 1–2 μM TAMRA–flg22 with 50 μM MG132 or 50 mM BDM, overnight)	amount detected in distal organs (Arabidopsis plants; fls2 and bak1 mutants versus Col, 5 μM on filter paper disc, confocal, P<0.0002, n≥7)	reversibility of binding to microsomal membranes (Arabidopsis FLS2)
CC(=O)C(C)=NO [BDM, 2,3-butanedione monoxime, reference compound]	impaired defense activation	prevented	did not prevent initial peptide binding/uptake	did not accumulate in vacuoles	–	–
CC[C@H](C)[C@H](NC(=O)[C@H](CCC(N)=O)NC(=O)[C@H](CC(C)C)NC(=O)CNC(=O)[C@H](C)NC(=O)[C@H](C)NC(=O)[C@H](CC(=O)O)NC(=O)[C@H](CC(=O)O)NC(=O)[C@H](CCCCN)NC(=O)[C@H](C)NC(=O)[C@H](CO)NC(=O)[C@H](CC(N)=O)NC(=O)[C@@H](NC(=O)[C@H](CCCNC(=N)N)NC(=O)[C@H](CO)NC(=O)CNC(=O)[C@@H](NC(=O)[C@H](CO)NC(=O)[C@H](CC(C)C)NC(=O)[C@H](CCCNC(=N)N)NC(=O)[C@@H](N)CCC(N)=O)[C@@H](C)O)[C@@H](C)CC)C(=O)N[C@@H](C)C(=O)O [flg22] (H-QRLSTGSRINSAKDDAAGLQIA-OH)	–	–	–	–	significantly less	reversible
